Where “and” joins values, the source holds several entries; their conditions need not be identical. Identical values can stand only once.
How the values were obtained:
[1] = stability test: water content (Karl-Fischer) and powder X-ray diffractogram in contact with the atmosphere at room temperature; type: physicochemical
Text: The new crystalline form of gatifloxacin which is obtainable by this process has an initial water content ranging between 0.8 and 1.6% and stabilises with a water content ranging between 2.5 and 4.5% by weight, when it is in contact with the atmosphere at room temperature and with a relative humidity comprised between 20 and 70%, and it remains stable for at least 2 months in such conditions.
The crystalline form of gatifloxacin object of the present invention is characterized by its powder X-ray diffractogram (FIG. 1), ^13C nuclear magnetic resonance spectrum (FIG. 3) and analysis of water content by the Karl-Fischer method.
For recording the powder X-ray diffractograms a PHILIPS X'Pert automatic diffractometer equipped with a Cu tube and a graphite secondary monochromator of the following technical specifications was used: • Cu wavelength Kα: 1.5419 Å; • receiving slit: 0.1 mm; • Soller: 0.04 radians; • dispersion slit and divergence slit: 1°
The tube worked at 40 kV and 50 mA. Sweeping was carried out continuously in the 2θ interval between 5 and 40° with pass of 0.03° and 1-second pass time.

[2] = disintegration and dissolution rate properties; type: physicochemical; conditions: form containing between 2.5 and 4.5% of water by weight

- % water by weight ([1]; 3 hours, room temperature, in contact with the atmosphere): 2.2 % by weight
- % water by weight ([1]; 6 hours, room temperature, in contact with the atmosphere): 2.3 % by weight
- % water by weight ([1]; 3 days, room temperature, in contact with the atmosphere): 3.22 % by weight and 3.2 % by weight
- % water by weight ([1]; 13 days, room temperature, in contact with the atmosphere): 2.9 % by weight
- % water by weight ([1]; 17 days, room temperature, in contact with the atmosphere): 3.0 % by weight
- % water by weight ([1]; 68 days, room temperature, in contact with the atmosphere): 3.3 % by weight
- period of time to stabilise ([1]; longer if relative humidity lower than 20%): three
- powder X-ray diffractogram over the stability test period ([1]; room temperature, in contact with the atmosphere, up to 68 days): remains substantially unchanged
- time the water content remains stable ([1]; room temperature, relative humidity between 20 and 70%): at least 2 months
- % water by weight ([1]; time 0 (at the time of taking it out of the desiccator)): 1.5 % by weight
- properties of disintegration and dissolution rate [2]: excellent
Structure (SMILES): COc1c(N2CCNC(C)C2)c(F)cc2c(=O)c(C(=O)O)cn(C3CC3)c12 (centres unmarked) [form I gatifloxacin, 1-cyclopropyl-6-fluoro-1,4-dihydro-ε-methoxy-7-(3-methyl-1-piperazinyl)-4-oxo-3-quinolinecarboxylic acid]

Reference: patent publication US20070032505A1, “Crystalline form of gatifloxacin” (priority 2003, published 2007)
